Measurements: ChEMBL document CHEMBL5120772, “Discovery of ASP5878: Synthesis and structure-activity relationships of pyrimidine derivatives as pan-FGFRs inhibitors with improved metabolic stability and suppressed hERG channel inhibitory activity” (Bioorg Med Chem, 2022)
Blank lines part the entries; values can stand above or below the compound they belong to.

Assays:
[1] = target: Voltage-gated inwardly rectifying potassium channel KCNH2 (Homo sapiens, UniProt Q12809); assay: Inhibition of hERG channel expressed in CHO cells at -80 mV holding potential by Qpatch clamp method
Chain of Voltage-gated inwardly rectifying potassium channel KCNH2 (Q12809 whole entry): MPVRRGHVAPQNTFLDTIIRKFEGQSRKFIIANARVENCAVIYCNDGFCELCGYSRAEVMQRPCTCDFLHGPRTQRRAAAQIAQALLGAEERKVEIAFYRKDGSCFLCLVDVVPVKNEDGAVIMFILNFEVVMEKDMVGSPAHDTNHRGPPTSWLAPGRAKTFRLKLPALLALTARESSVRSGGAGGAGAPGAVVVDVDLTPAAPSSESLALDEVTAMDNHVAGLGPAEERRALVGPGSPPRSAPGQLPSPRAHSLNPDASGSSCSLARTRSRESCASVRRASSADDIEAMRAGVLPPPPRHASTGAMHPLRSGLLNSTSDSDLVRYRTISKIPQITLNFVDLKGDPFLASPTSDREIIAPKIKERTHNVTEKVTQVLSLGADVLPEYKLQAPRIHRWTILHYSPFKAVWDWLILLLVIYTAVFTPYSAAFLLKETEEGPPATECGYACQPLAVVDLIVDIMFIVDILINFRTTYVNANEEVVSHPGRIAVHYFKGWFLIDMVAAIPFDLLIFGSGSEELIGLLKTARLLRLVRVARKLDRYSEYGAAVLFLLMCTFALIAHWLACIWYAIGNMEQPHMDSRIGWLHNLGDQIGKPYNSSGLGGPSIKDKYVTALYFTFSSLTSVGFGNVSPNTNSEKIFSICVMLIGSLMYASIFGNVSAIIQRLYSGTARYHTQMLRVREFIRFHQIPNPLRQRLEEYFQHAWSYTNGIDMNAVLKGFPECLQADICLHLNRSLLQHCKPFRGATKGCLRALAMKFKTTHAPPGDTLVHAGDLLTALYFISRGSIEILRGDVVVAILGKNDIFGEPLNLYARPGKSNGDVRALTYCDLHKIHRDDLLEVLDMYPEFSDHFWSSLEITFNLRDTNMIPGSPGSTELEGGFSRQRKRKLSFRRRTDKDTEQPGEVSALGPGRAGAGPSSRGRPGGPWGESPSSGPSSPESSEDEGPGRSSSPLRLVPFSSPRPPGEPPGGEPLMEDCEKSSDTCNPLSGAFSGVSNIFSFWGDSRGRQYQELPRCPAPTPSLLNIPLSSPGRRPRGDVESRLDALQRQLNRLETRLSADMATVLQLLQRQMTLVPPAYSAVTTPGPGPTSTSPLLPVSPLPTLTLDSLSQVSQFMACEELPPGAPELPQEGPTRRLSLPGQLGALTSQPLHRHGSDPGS

[2] = Intrinsic clearance in human liver microsomes
[3] = Permeability of the compound in aqueous buffer at pH 6.5 incubated for 2 hrs by PAMPA based HPLC analysis
[4] = Lipophilicity, logD of the compound in 1-octanol and phosphate buffer at pH 7.4 by LC-MS analysis
[5] = system: NIH3T3; assay: Cytotoxicity against mouse NIH/3T3 cells overexpressing FGFR3 S249C assessed as cell growth inhibition incubated for 5 days by CellTitre-Glo assay; details: NIH3T3, 120 h
[6] = Plasma concentration in ICR mouse at 30 mg/kg, po measured after 6 hrs of administration by LC-MS/MS analysis; type: ADME, organism-based
[7] = animal or person; details: Mus musculus, Balb/c, NIH3T3, po, 6 h, read-out: INH
[8] = Ratio of drug concentration in brain to plasma (Kp,brain) in Sprague-Dawley rat at 1 mg/kg, po measured after 1 hr
[9] = Ratio of drug concentration in brain to plasma (Kp,brain) in Sprague-Dawley rat at 1 mg/kg, po measured after 24 hrs
[10] = Ratio of drug concentration in brain to plasma (Kp,brain) in Sprague-Dawley rat at 1 mg/kg, po measured after 4 hrs
[11] = target: Fibroblast growth factor receptor 3 (Homo sapiens, UniProt P22607); assay: Inhibition of wild type N-terminal GST tagged FGFR3 (436 to 806 residues) (unknown origin) expressed in sf21 insect cells preincubated for 30 mins followed by substrate addition and measured after 30 mins in presence of ATP by off-chip mobility shift assay
Chain of Fibroblast growth factor receptor 3 (P22607 whole entry, the tested form may be a part): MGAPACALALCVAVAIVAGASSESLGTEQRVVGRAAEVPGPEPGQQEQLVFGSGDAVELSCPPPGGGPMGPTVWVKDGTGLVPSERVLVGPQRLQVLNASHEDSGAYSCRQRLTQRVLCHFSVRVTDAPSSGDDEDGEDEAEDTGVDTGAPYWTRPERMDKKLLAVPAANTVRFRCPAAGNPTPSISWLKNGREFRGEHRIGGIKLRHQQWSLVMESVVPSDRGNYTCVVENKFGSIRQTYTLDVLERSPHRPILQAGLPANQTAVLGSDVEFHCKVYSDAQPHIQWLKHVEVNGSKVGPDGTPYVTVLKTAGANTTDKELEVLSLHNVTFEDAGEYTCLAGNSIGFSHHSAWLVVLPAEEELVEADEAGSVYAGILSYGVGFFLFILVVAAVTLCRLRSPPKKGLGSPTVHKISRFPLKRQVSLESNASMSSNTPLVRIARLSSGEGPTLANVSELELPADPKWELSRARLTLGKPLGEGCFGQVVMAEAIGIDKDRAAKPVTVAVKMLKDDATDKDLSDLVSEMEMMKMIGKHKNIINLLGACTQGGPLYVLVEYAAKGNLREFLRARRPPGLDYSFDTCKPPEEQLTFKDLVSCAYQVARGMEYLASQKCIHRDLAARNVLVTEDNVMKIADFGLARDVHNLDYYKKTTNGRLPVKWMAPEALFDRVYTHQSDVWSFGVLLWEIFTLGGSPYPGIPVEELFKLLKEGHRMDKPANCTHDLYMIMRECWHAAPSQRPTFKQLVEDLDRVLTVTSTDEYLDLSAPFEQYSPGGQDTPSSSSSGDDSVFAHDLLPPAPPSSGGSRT

[12] = Half-life in Sprague-Dawley rat at 0.3 mg/kg, iv measured up to 24 hrs by LC-MS/MS analysis; details: in vivo
[13] = dog, in vivo, po, 100 mg/kg, 72 h
[14] = in vivo; details: beagle, dog, po, 100 mg/kg
[15] = in vivo; details: Sprague-Dawley, rat, po, 0.3 mg/kg
[16] = target: T1, hERG (Homo sapiens, UniProt Q12809); assay: Inhibition of hERG in HEK293 cells assessed as mean compensated suppression rate at 10 uM incubated for 13 mins by whole cell patch clamp assay relative to control; details: HEK293 cells expressing hERG
T1 sequence (Q12809 whole entry): as the sequence (Q12809 whole entry) above

[17] = Half-life in Beagle dog at 0.1 mg/kg, iv measured up to 72 hrs by LC-MS/MS analysis; details: in vivo
[18] = target: T1, hERG; assay: Inhibition of hERG in HEK293 cells assessed as mean compensated suppression rate at 3 uM incubated for 13 mins by whole cell patch clamp assay relative to control; details: HEK293 cells expressing hERG
[19] = dog, in vivo, po, 10 mg/kg, 72 h
[20] = in vivo; details: beagle, dog, po, 1 mg/kg
[21] = in vivo; details: Sprague-Dawley, rat, po, 0.3 mg/kg; remark: listed apart in the source
[22] = in vivo; details: beagle, dog, po, 0.1 mg/kg
[23] = in vivo; details: beagle, dog, po, 10 mg/kg
[24] = Volume of distribution at steady state in Sprague-Dawley rat at 0.3 mg/kg, iv measured up to 24 hrs by LC-MS/MS analysis; details: in vivo
[25] = in vivo; details: Sprague-Dawley, rat, iv, 0.3 mg/kg
[26] = AUCinfinity in Sprague-Dawley rat at 0.3 mg/kg, iv measured up to 24 hrs by LC-MS/MS analysis; details: in vivo
[27] = AUCinfinity in Beagle dog at 0.1 mg/kg, po measured upto 72 hrs by LC-MS/MS analysis; details: in vivo
[28] = in vivo; details: beagle, dog, po, 0.1 mg/kg; remark: listed apart in the source
[29] = in vivo; details: Sprague-Dawley, rat, po, 0.3 mg/kg; remark: listed apart in the source
[30] = in vivo; details: beagle, dog, po, 1 mg/kg; remark: listed apart in the source
[31] = AUCinfinity in Sprague-Dawley rat at 0.3 mg/kg, po measured upto 24 hrs by LC-MS/MS analysis; details: in vivo
[32] = in vivo; details: beagle, dog, po, 1 mg/kg; remark: listed apart in the source
[33] = Volume of distribution at steady state in Beagle dog at 0.1 mg/kg, iv measured up to 72 hrs by LC-MS/MS analysis; details: in vivo
[34] = dog, in vivo, po, 10 mg/kg, 72 h; remark: listed apart in the source
[35] = in vivo; details: beagle, dog, iv, 0.1 mg/kg
[36] = in vivo; details: beagle, dog, po, 100 mg/kg; remark: listed apart in the source
[37] = AUCinfinity in Beagle dog at 0.1 mg/kg, iv measured up to 72 hrs by LC-MS/MS analysis; details: in vivo
[38] = in vivo; details: beagle, dog, po, 0.1 mg/kg; remark: listed apart in the source
[39] = target: T1, hERG; assay: Inhibition of hERG in HEK293 cells assessed as mean compensated suppression rate at 1 uM incubated for 13 mins by whole cell patch clamp assay relative to control; details: HEK293 cells expressing hERG

SMILES: COc1cc(Nc2ncc(CCc3c(F)c(OC)cc(OC)c3F)cn2)ccc1N1CCC(N2CCN(C)CC2)CC1
IC50 [1]: 10000 nM | CLint scaled ([2]; liver microsomes): 171 mL/min/kg

Papp at 2 h [3]: 11.2 ×10⁻⁶ cm/s | logD ([4]; 1-octanol/phosphate buffer): 3.3 | CLint scaled ([2]; liver microsomes): 40 mL/min/kg | concentration at 6 h [6]: 2790 nM
SMILES: COc1cc(Nc2ncc(OCc3c(F)c(OC)cc(OC)c3F)cn2)ccc1N1CCC(N2CCN(C)CC2)CC1
IC50 [1]: > 3000 nM | IC50 [5]: 13 nM | inhibition in vivo at 30 mg/kg [7]: 67%

Papp at 2 h [3]: 16.2 ×10⁻⁶ cm/s | logD ([4]; 1-octanol/phosphate buffer): 3 | CLint scaled ([2]; liver microsomes): 39 mL/min/kg
SMILES: COc1cc(Nc2ncc(OCc3c(F)c(OC)cc(OC)c3F)cn2)ccc1N1CCN(C)CC1
IC50 [1]: > 3000 nM

Papp at 2 h [3]: 16.8 ×10⁻⁶ cm/s | logD ([4]; 1-octanol/phosphate buffer): 3.8 | CLint scaled ([2]; liver microsomes): < 23 mL/min/kg
SMILES: CCOc1cc(Nc2ncc(OCc3c(F)c(OC)cc(OC)c3F)cn2)ccc1N1CCC(N2CCN(C)CC2)CC1
IC50 [1]: > 3000 nM

Papp at 2 h [3]: < 0.9 ×10⁻⁶ cm/s | logD ([4]; 1-octanol/phosphate buffer): 2.5 | CLint scaled ([2]; liver microsomes): 48 mL/min/kg
SMILES: COc1cc(Nc2ncc(CCc3c(F)c(OC)cc(OC)c3F)cn2)ccc1N1CCC(N(C)C2CCN(C)CC2)CC1.Cl.Cl.Cl.Cl
IC50 [1]: > 1000 nM | IC50 [5]: 24 nM

CLint scaled ([2]; liver microsomes): 39 mL/min/kg
SMILES: COc1cc(OC)c(F)c(COc2cnc(Nc3cnc(N4CCC(N5CCN(C)CC5)CC4)nc3)nc2)c1F

CLint scaled ([2]; liver microsomes): 34 mL/min/kg
SMILES: COc1cc(OC)c(F)c(COc2cnc(Nc3ccc(N4CCC(N5CCN(C)CC5)CC4)nc3)nc2)c1F

Kp at 1 h [8]: 0.15 | Kp at 24 h [9]: 0.69 | Kp at 4 h [10]: 0.2
SMILES: COc1cc(OC)c(F)c(COc2cnc(Nc3cnn(CCO)c3)n[14cH]2)c1F

Papp at 2 h [3]: > 30 ×10⁻⁶ cm/s | logD ([4]; 1-octanol/phosphate buffer): 3 | CLint scaled ([2]; liver microsomes): 101 mL/min/kg
SMILES: COc1cc(Nc2ncc(CCc3c(F)c(OC)cc(OC)c3F)cn2)ccc1N1CCN(C)CC1
IC50 [5]: 18 nM

CLint scaled ([2]; liver microsomes): 51 mL/min/kg
SMILES: COc1cc(Nc2ncc(CCc3c(F)c(OC)cc(OC)c3F)cn2)ccc1N1CCN(C2CCN(C)CC2)CC1

CLint scaled ([2]; liver microsomes): 26 mL/min/kg
SMILES: COc1cc(Nc2ncc(OCc3c(F)c(OC)cc(OC)c3F)cn2)cnc1N1CCC(N2CCN(C)CC2)CC1

SMILES: COc1cc(OC)c(F)c(COc2cnc(Nc3cnn(CCNC4CCN(C)CC4)c3)nc2)c1F.Cl.Cl.Cl
Papp at 2 h [3]: < 1.4 ×10⁻⁶ cm/s | IC50 [1]: 83000 nM | logD ([4]; 1-octanol/phosphate buffer): 0.7 | CLint scaled ([2]; liver microsomes): < 23 mL/min/kg | IC50 [5]: 32 nM | concentration at 6 h [6]: 50.2 nM

SMILES: COc1cc(OC)c(F)c(COc2cnc(Nc3cnn(CCN4CCNCC4)c3)nc2)c1F.Cl.Cl.Cl
Papp at 2 h [3]: < 1.1 ×10⁻⁶ cm/s | IC50 [1]: 89000 nM | logD ([4]; 1-octanol/phosphate buffer): 0.2 | CLint scaled ([2]; liver microsomes): < 23 mL/min/kg | IC50 [5]: 13 nM | concentration at 6 h [6]: 305 nM

SMILES: COc1cc(OC)c(F)c(COc2cnc(Nc3ccc(N4CCC(N5CCN(C)CC5)CC4)c(F)c3)nc2)c1F
CLint scaled ([2]; liver microsomes): 42 mL/min/kg | IC50 [5]: 5.5 nM | IC50 [11]: < 1 nM

Papp at 2 h [3]: 20.6 ×10⁻⁶ cm/s | logD ([4]; 1-octanol/phosphate buffer): 4.1 | CLint scaled ([2]; liver microsomes): 58 mL/min/kg
SMILES: COc1cc(OC)c(F)c(COc2cnc(Nc3ccc(N4CCC(N5CCN(C)CC5)CC4)c(C)c3)nc2)c1F
IC50 [5]: 20 nM

half-life at 24 h [12]: 1.7 h | Cmax [13]: 9020 ng/mL | Papp at 2 h [3]: 13.3 ×10⁻⁶ cm/s | AUC(0-t) at 72 h [14]: 111000 ng·h/mL | Tmax at 24 h [15]: 1 h | half-life at 72 h [17]: 9.6 h | AUC [19]: 39600 ng·h/mL | AUC(0-t) at 72 h [20]: 5710 ng·h/mL | bioavailability at 24 h [21]: 76.1% | Cmax at 72 h [22]: 119 ng/mL | Tmax at 72 h [23]: 3 h | logD ([4]; octanol/water): 2.3 | Vd at 24 h [24]: 0.671 L/kg | CLint scaled ([2]; microsomes): < 23 mL/min/kg | clearance at 24 h [25]: 5.82 mL/min/kg | AUC(0-inf) at 24 h [26]: 864 ng·h/mL | AUC(0-inf) at 72 h [27]: 1180 ng·h/mL | Tmax at 72 h [28]: 1 h | concentration at 6 h [6]: 1570 nM | Cmax at 24 h [29]: 196 ng/mL | Tmax at 72 h [30]: 1.3 h | AUC(0-inf) at 24 h [31]: 657 ng·h/mL | Cmax at 72 h [32]: 769 ng/mL | Vd at 72 h [33]: 0.665 L/kg | Cmax [34]: 3540 ng/mL | clearance at 72 h [35]: 1.33 mL/min/kg | Tmax at 72 h [36]: 4.5 h | AUC(0-inf) at 72 h [37]: 1260 ng·h/mL | bioavailability at 72 h [38]: 94.2%
SMILES: COc1cc(OC)c(F)c(COc2cnc(Nc3cnn(CCO)c3)nc2)c1F [ASP-5878]
inhibition at 13 min, 10 µM [16]: 9.1% | inhibition at 13 min, 3 µM [18]: 9.1% | IC50 [1]: > 10000 nM | IC50 [5]: 11 nM | inhibition at 13 min, 1 µM [39]: 7%
